The subject of one data set is B. subtilis ATCC6633. Briefly: MIC assay. The class given is cell-based, Bacillus subtilis. Conditions: two-fold serial dilutions in liquid media, n = 2–3.
In the next data set the test system is S. aureus ATCC6538P. Description: MIC assay. The class given is cell-based, Staphylococcus aureus. The conditions noted are these: two-fold serial dilutions in liquid media, n = 2–3.
The test system of a further data set is E. coli ATCC8739. Briefly: MIC assay. The class given is cell-based, Escherichia coli. The conditions noted are these: two-fold serial dilutions in liquid media, n = 2–3.
Another data set concerns P. aeruginosa ATCC9027. Description: MIC assay. The class given is cell-based, Pseudomonas aeruginosa. Conditions: two-fold serial dilutions in liquid media, n = 2–3.
A further data set relates to M. smegmatis ATCC700084. Description: MIC assay (REMA). The class given is cell-based, Mycobacterium smegmatis. The conditions noted are these: n = 2–3.
The subject of another data set is C. albicans DSM10697. Briefly: MIC assay. The class given is cell-based, Candida albicans. The conditions noted are these: two-fold serial dilutions in liquid media, n = 2–3.
Setting [1] is: Staphylococcus aureus, ATCC6538P.
Setting [2] is: Pseudomonas aeruginosa, ATCC9027.
Setting [3] is: Mycolicibacterium smegmatis, ATCC700084, REMA microdilution.

SMILES strings stand for the structures. In brackets after ≈: the same amount, converted by molar mass.

One may read the MIC as the least concentration at which growth counts as inhibited. The term melting point denotes the temperature of the solid-liquid transition.

In turn, `CC(C)Oc1ccc(/C=C2\Oc3ccc(N)cc3C2=O)cc1` [Compound 23, (Z)-5-amino-2-(4-isopropoxybenzylidene)benzofuran-3(2H)-one] yielded a melting point above 350 °C. Further, the MIC against B. subtilis ATCC6633 (Bacillus subtilis, ATCC6633) is above 100 µM. For the same compound, the minimal inhibitory concentration (MIC) in the data set on S. aureus ATCC6538P (setting [1]) is above 100 µM. Moreover, the MIC against E. coli ATCC8739 (Escherichia coli, ATCC8739) was above 100 µM. In the data set on P. aeruginosa ATCC9027 (setting [2]), this compound returned a minimum inhibitory concentration (MIC) above 100 µM. The compound further gave a minimum inhibitory concentration (MIC) against M. smegmatis ATCC700084 (setting [3]) above 100 µM. In the data set with C. albicans DSM10697 (Candida albicans, DSM10697), the minimal inhibitory concentration (MIC) is above 100 µM.

`CC(=O)Nc1ccc2c(c1)C(=O)/C(=C/c1ccccc1F)O2` [Compound 24, (Z)-N-(2-(2-fluorobenzylidene)-3-oxo-2,3-dihydrobenzofuran-5-yl)acetamide] registered a melting point of 226 °C. The compound also registered an MIC in the data set with B. subtilis ATCC6633 (Bacillus subtilis, ATCC6633) above 100 µM. The compound further came in with an MIC against S. aureus ATCC6538P (setting [1]) above 100 µM. Besides, in the data set with E. coli ATCC8739 (Escherichia coli, ATCC8739), the MIC was above 100 µM. In the data set with P. aeruginosa ATCC9027 (setting [2]), this compound displayed an MIC above 100 µM. Further, the minimum inhibitory concentration (MIC) in the data set on M. smegmatis ATCC700084 (setting [3]) was above 100 µM. The compound also registered a minimum inhibitory concentration (MIC) with C. albicans DSM10697 (Candida albicans, DSM10697) above 100 µM.

Compound `CC(=O)Nc1ccc2c(c1)C(=O)/C(=C/c1cccc(F)c1)O2` [Compound 25, (Z)-N-(2-(3-fluorobenzylidene)-3-oxo-2,3-dihydrobenzofuran-5-yl)acetamide] displayed a melting point of 243.6 °C. Further, inhibition of growth in the data set on B. subtilis ATCC6633 (Bacillus subtilis, ATCC6633) (MIC) required 50 µM (≈ 14.9 µg/mL). Also, in the data set on S. aureus ATCC6538P (setting [1]), the MIC is above 100 µM. In addition, the MIC in the data set on E. coli ATCC8739 (Escherichia coli, ATCC8739) is above 100 µM. The MIC with P. aeruginosa ATCC9027 (setting [2]) is above 100 µM. In the data set on M. smegmatis ATCC700084 (setting [3]), this compound had an MIC of 100 µM (≈ 29.7 µg/mL). This compound had an MIC with C. albicans DSM10697 (Candida albicans, DSM10697) above 100 µM.

`Nc1ccc2c(c1)C(=O)/C(=C/c1ccccc1F)O2` [Compound 26, (Z)-5-amino-2-(2-fluorobenzylidene)benzofuran-3(2H)-one]: the MIC in the data set with B. subtilis ATCC6633 (Bacillus subtilis, ATCC6633) was 50 µM (≈ 12.8 µg/mL); in the data set on S. aureus ATCC6538P (setting [1]) it was above 100 µM; with E. coli ATCC8739 (Escherichia coli, ATCC8739), above 100 µM; against P. aeruginosa ATCC9027 (setting [2]), above 100 µM; against M. smegmatis ATCC700084 (setting [3]), above 100 µM; in the data set with C. albicans DSM10697 (Candida albicans, DSM10697), above 100 µM.

With `Nc1ccc2c(c1)C(=O)/C(=C/c1cccc(F)c1)O2` [Compound 27, (Z)-5-amino-2-(3-fluorobenzylidene)benzofuran-3(2H)-one], the MIC was above 100 µM with B. subtilis ATCC6633 (Bacillus subtilis, ATCC6633); above 100 µM against S. aureus ATCC6538P (setting [1]); above 100 µM against E. coli ATCC8739 (Escherichia coli, ATCC8739); above 100 µM in the data set with P. aeruginosa ATCC9027 (setting [2]); above 100 µM with M. smegmatis ATCC700084 (setting [3]); above 100 µM with C. albicans DSM10697 (Candida albicans, DSM10697).

Regarding `Nc1ccc2c(c1)C(=O)/C(=C/c1ccc(F)cc1)O2` [Compound 28, (Z)-5-amino-2-(4-fluorobenzylidene)benzofuran-3(2H)-one], the melting point stood at 164.4 °C. Moreover, in the data set with B. subtilis ATCC6633 (Bacillus subtilis, ATCC6633), the MIC was above 100 µM. In addition, in the data set with S. aureus ATCC6538P (setting [1]), the MIC is above 100 µM. Further, in the data set on E. coli ATCC8739 (Escherichia coli, ATCC8739), the minimal inhibitory concentration (MIC) is above 100 µM. In the data set on P. aeruginosa ATCC9027 (setting [2]), this compound yielded a minimum inhibitory concentration (MIC) above 100 µM. Moreover, in the data set on M. smegmatis ATCC700084 (setting [3]), the minimal inhibitory concentration (MIC) is above 100 µM. Also, in the data set on C. albicans DSM10697 (Candida albicans, DSM10697), the MIC was above 100 µM.

`CC(=O)Nc1ccc2c(c1)C(=O)/C(=C/c1cccc(C(F)(F)F)c1)O2` [Compound 29, (Z)-N-(3-oxo-2-(3-(trifluoromethyl)benzylidene)-2,3-dihydrobenzofuran-5-yl)acetamide]: the melting point was 252.1 °C. This compound also came in with a minimum inhibitory concentration (MIC) with B. subtilis ATCC6633 (Bacillus subtilis, ATCC6633) above 100 µM. In the data set on S. aureus ATCC6538P (setting [1]), this compound came in with an MIC above 100 µM. Moreover, the MIC in the data set with E. coli ATCC8739 (Escherichia coli, ATCC8739) was above 100 µM. In the data set on P. aeruginosa ATCC9027 (setting [2]), this compound registered a minimal inhibitory concentration (MIC) above 100 µM. In the data set on M. smegmatis ATCC700084 (setting [3]), the MIC was above 100 µM. The compound further gave an MIC against C. albicans DSM10697 (Candida albicans, DSM10697) above 100 µM.

For `CC(=O)Nc1ccc2c(c1)C(=O)/C(=C/c1ccc(C(=O)O)cc1)O2` [Compound 31, (Z)-4-((5-acetamido-3-oxobenzofuran-2(3H)-ylidene)methyl)benzoic acid], the minimum inhibitory concentration (MIC) against B. subtilis ATCC6633 (Bacillus subtilis, ATCC6633) is 50 µM (≈ 16.2 µg/mL); in the data set on S. aureus ATCC6538P (setting [1]), 100 µM (≈ 32.3 µg/mL); against E. coli ATCC8739 (Escherichia coli, ATCC8739), above 100 µM; against P. aeruginosa ATCC9027 (setting [2]), above 100 µM; in the data set on M. smegmatis ATCC700084 (setting [3]), 100 µM (≈ 32.3 µg/mL); in the data set with C. albicans DSM10697 (Candida albicans, DSM10697), above 100 µM.

Consider `CC(=O)Nc1ccc2c(c1)C(=O)/C(=C/c1cccc(O)c1)O2` [Compound 32, (Z)-N-(2-(3-hydroxybenzylidene)-3-oxo-2,3-dihydrobenzofuran-5-yl)acetamide], for which the minimum inhibitory concentration (MIC) in the data set with B. subtilis ATCC6633, against S. aureus ATCC6538P, in the data set with E. coli ATCC8739, in the data set on P. aeruginosa ATCC9027, against M. smegmatis ATCC700084 (REMA microdilution) and in the data set on C. albicans DSM10697 was above 100 µM throughout.

In the case of `Nc1ccc2c(c1)C(=O)/C(=C/c1cccc(O)c1)O2` [Compound 33, (Z)-5-amino-2-(3-hydroxybenzylidene)benzofuran-3(2H)-one], the MIC in the data set with B. subtilis ATCC6633, against S. aureus ATCC6538P, in the data set with E. coli ATCC8739, against P. aeruginosa ATCC9027, against M. smegmatis ATCC700084 (REMA microdilution) and against C. albicans DSM10697 was above 100 µM throughout.

`CO/N=C1\CN(c2nc3c(cc2F)c(=O)c(C(=O)O)cn3C2CC2)CC1CN` (stereo not shown) [Gemifloxacin, reference compound]: the MIC against B. subtilis ATCC6633 (Bacillus subtilis, ATCC6633) was 0.03 µM (≈ 0.0117 µg/mL); in the data set on S. aureus ATCC6538P (setting [1]), 0.06 µM (≈ 0.0234 µg/mL); against E. coli ATCC8739 (Escherichia coli, ATCC8739) it was 0.06 µM (≈ 0.0234 µg/mL); in the data set with P. aeruginosa ATCC9027 (setting [2]) it was 0.25 µM (≈ 0.0973 µg/mL); against M. smegmatis ATCC700084 (setting [3]), 2 µM (≈ 0.779 µg/mL).

The values are drawn from article PMC11047580, “Design and Synthesis of Novel Amino and Acetamidoaurones with Antimicrobial Activities” (Antibiotics, 2024).
